Among the data in article PMC10539329, “NLRP6 potentiates PI3K/AKT signalling by promoting autophagic degradation of p85α to drive tumorigenesis” (Nature Communications, 2023) are nude mice survival values, retold here.

This experiment has as its system nude mice with intracranially implanted tumour cells. The experiment can be described thus: Survival of nude mice with intracranial tumour after intratumoural peptide. It counts as in vivo, BALB/c nude mice. To be noted: 0.25 mg/kg per injection (PepC, Pep9 H). How it is done:
BALB/c nude mice were maintained and bred in a specific-pathogen free (SPF) environment, adhering to standard conditions of temperature (20–26 °C) and humidity (40–70%). They were subjected to a strict 12-h light cycle, with lights on at 08:00 a.m. and off at 08:00 p.m. No limitations were imposed on the sex of the experimental animals involved in this study. Cells expressing firefly luciferase mixed with Matrigel (Corning, NY, USA) were intracranially injected into 5- to 6-week-old female athymic nude mice. The intracranial injection point was at the cerebral cortex, 1 mm prior to coronal suture, 1 mm on the right side of the centreline, and 3 mm below the dura mater. Appropriate medications were provided to reduce pain. To monitor intracranial tumour growth, the animals were intraperitoneally injected with D-luciferin (Yeasen, #40902ES01) and anaesthetized with isoflurane. The images were captured using an In Vivo MS FX pro Imaging System (Bruker, MA, USA) or IVIS Lumina imaging station (Perkin Elmer, MA, USA). The results were reported as the total flux (photons/second). The mice were sacrificed at the indicated time points. The brains were removed, fixed in 4% paraformaldehyde, and embedded in paraffin.
To determine the antitumour effect of the peptide in vitro, the peptide was incubated with cells for 24 h when the cells were grown to approximately 80% confluence. Cell viability was measured at the indicated time points. The cell lysates were collected for immunoprecipitation as described above. To determine the antitumour effect of the peptide in vivo, the peptide was stereotactically injected using identical coordinates of tumour implantation in 3 μl of PBS. Briefly, 3 weeks after intracranial tumour cell implantation, mice with similar tumour sizes and similar weights were selected and randomly arranged into five groups (n = 6): PBS, PepC (0.25 mg/kg TAT-PepC per injection), Pep9 low dose (Pep9 L, 0.05 mg/kg TAT-Pep9 per injection), Pep9 medium dose (Pep9 M, 0.1 mg/kg TAT-Pep9 per injection), and Pep9 high dose (Pep9 H, 0.25 mg/kg TAT-Pep9 per injection). Each mouse received intratumoural injection every 10 days (at Day 21, Day 31, Day 41, and Day 51), and tumour growth was monitored at Day 21, Day 41, and Day 56. The experiment was terminated at Day 80, and all the mice (if they were alive) were sacrificed as previously described.

With “SAEGYQYRALYD [Pep1, peptide found on the p85α SH3 domain; selected as the control named PepC]”, the nude mice survival by setting is: (terminated Day 80, mouse 1) 60 days; (terminated Day 80, mouse 2) 61 days; (terminated Day 80, mouse 3, >= is status 0 (live)) 59 days; (terminated Day 80, mouse 4, >= is status 0 (live)) 58 days; (terminated Day 80, mouse 5, >= is status 0 (live)) 58 days; (terminated Day 80, mouse 6, >= is status 0 (live)) 62 days.
